# Measurements: the supplement of paper PMC10307832
# What was measured:
# Test in all cases: relative viability (nuclei count vs DMSO), 5 days (fraction); higher = more cells survive
# [1] = compound: Cc1ccc2nc(NCCN)c3ncc(C)n3c2c1 + O=C(CCCCCCC(=O)Nc1ccccc1)NO [Vorinostat] (partner 1 µM)
# Outline: (§1)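 Dosing by pin tool came one day after lung cancer cell lines were seeded in 1536-well plates, using either one drug or a fixed anchor-drug dose plus five library-drug doses (not always all listed) in √10 steps. After 5 days, nuclei were counted on 4× images. Relative viability is treated-well nuclei count divided by vehicle-well nuclei count, and values are medians of duplicate plates.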
# [2] = compound: Cc1ccc2nc(NCCN)c3ncc(C)n3c2c1 + CC(C)C[C@H](NC(=O)[C@H](Cc1ccccc1)NC(=O)c1cnccn1)B(O)O [Bortezomib] (partner 0.002 µM)
# Outline: as §1
# Salubrinal + Phenformin = compound: O=C(/C=C/c1ccccc1)NC(NC(=S)Nc1cccc2cccnc12)C(Cl)(Cl)Cl [Salubrinal] + N=C(N)NC(=N)NCCc1ccccc1 [Phenformin] (partner 250 µM)
# Outline: as §1
# Salubrinal + AZD7762 = compound: O=C(/C=C/c1ccccc1)NC(NC(=S)Nc1cccc2cccnc12)C(Cl)(Cl)Cl [Salubrinal] + NC(=O)Nc1cc(-c2cccc(F)c2)sc1C(=O)N[C@H]1CCCNC1 [AZD7762] (partner 0.2 µM)
# Outline: as §1
Cell Line,relative viability ([1]; first compound 0.04 µM),relative viability ([1]; first compound 0.1265 µM),relative viability ([1]; first compound 0.4 µM),relative viability ([1]; first compound 1.265 µM),relative viability ([1]; first compound 4 µM),relative viability ([2]; first compound 0.04 µM),relative viability ([2]; first compound 0.1265 µM),relative viability ([2]; first compound 0.4 µM),relative viability ([2]; first compound 1.265 µM),relative viability ([2]; first compound 4 µM),relative viability (Salubrinal + Phenformin; first compound 0.08 µM),relative viability (Salubrinal + Phenformin; first compound 0.253 µM),relative viability (Salubrinal + Phenformin; first compound 0.8 µM),relative viability (Salubrinal + Phenformin; first compound 2.53 µM),relative viability (Salubrinal + Phenformin; first compound 8 µM),relative viability (Salubrinal + AZD7762; first compound 0.08 µM),relative viability (Salubrinal + AZD7762; first compound 0.253 µM),relative viability (Salubrinal + AZD7762; first compound 0.8 µM),relative viability (Salubrinal + AZD7762; first compound 2.53 µM),relative viability (Salubrinal + AZD7762; first compound 8 µM)
HCC-44,0.981,1.05,1.09,1.08,1.11,0.93,0.897,0.806,0.882,0.922,0.193,0.212,0.391,0.364,0.182,1.02,1.01,1.02,1,0.977
HCC-827,0.851,0.793,0.872,0.857,0.81,1.12,1.05,0.958,1.09,1.01,0.408,0.521,0.356,0.392,0.341,0.193,0.191,0.199,0.181,0.222
NCI-H2342,0.869,0.689,0.701,0.784,0.704,,,,,,0.497,0.564,0.618,0.635,0.572,0.445,0.503,0.552,0.517,0.552
NCI-H2347,0.577,0.614,0.526,0.672,0.729,1.09,0.919,0.932,1.14,1.07,0.321,0.35,0.399,0.363,0.43,0.537,0.82,0.919,0.749,0.744
PC-14,0.766,0.693,0.763,0.718,0.567,0.957,0.884,0.761,0.904,0.782,0.696,0.551,0.576,0.677,0.687,0.485,0.422,0.418,0.365,0.367
NCI-H1651,0.639,0.558,0.564,0.539,0.483,0.966,0.954,1.07,0.972,0.676,0.311,0.237,0.345,0.296,0.267,0.464,0.423,0.546,0.484,0.388
HARA,0.473,0.648,0.422,0.499,0.426,1.14,1.11,1.13,1.06,1.1,0.607,0.484,0.483,0.445,0.47,0.374,0.254,0.25,0.437,0.196
NCI-H1650,0.709,0.466,0.509,0.469,0.478,0.203,0.19,0.206,0.182,0.202,0.497,0.462,0.423,0.423,0.422,,,,,
NCI-H1395,0.891,0.765,0.662,0.651,0.56,,,,,,0.473,0.459,0.451,0.453,0.431,0.376,0.443,0.389,0.432,0.385
LU99A,0.532,0.512,0.423,0.494,0.476,1.26,1.08,1.07,1.2,1,0.921,0.916,0.992,0.906,0.896,0.459,0.319,0.401,0.311,0.236
NCI-H1355,0.721,0.599,0.633,0.634,0.671,1.25,1.19,1.02,1.14,1.06,0.424,0.426,0.475,0.456,0.44,0.788,0.711,0.821,0.691,0.691
HCC-78,0.502,0.426,0.402,0.383,0.436,0.52,0.424,0.365,,0.444,0.736,0.647,0.898,0.75,0.679,0.699,0.599,0.758,0.613,0.538
NCI-H1563,,,,,,0.859,0.757,0.875,0.968,1.05,0.71,0.617,0.647,0.635,0.692,,,,,
HCC-15,0.852,0.873,0.78,0.78,0.744,1.02,1,0.864,0.975,0.783,0.524,0.431,0.533,0.487,0.391,1.4,1.22,1.28,1.25,1.25
EKVX,0.835,0.676,0.603,0.752,0.737,0.998,0.994,0.996,1.17,0.951,0.228,0.23,0.236,0.203,0.228,0.78,0.591,0.999,0.721,0.757
NCI-H2087,0.435,0.657,0.611,0.884,0.675,0.756,0.955,0.66,0.824,0.864,0.472,0.361,0.527,0.471,0.476,1.44,0.751,1.44,1.31,1.29
LK-2,0.384,0.409,0.302,0.315,0.322,,,,,,0.502,0.466,0.675,0.3,0.395,0.39,0.486,0.489,0.441,0.358
NCI-H1437,0.752,0.813,0.771,0.667,0.653,0.628,0.467,0.474,0.539,0.557,0.314,0.251,0.343,0.283,0.306,1.19,1.1,1.16,1.11,1.04
